Reference: the supplement of paper PMC10307832

Experiments:
Assay in all cases: relative viability (nuclei count vs DMSO), 5 days (fraction); higher = more cells survive
CUDC-101 + Alpelisib = compound: C#Cc1cccc(Nc2ncnc3cc(OC)c(OCCCCCCC(=O)NO)cc23)c1 [CUDC-101] + Cc1nc(NC(=O)N2CCC[C@H]2C(N)=O)sc1-c1ccnc(C(C)(C)C(F)(F)F)c1 [Alpelisib] (partner 2 µM)
Method in brief: (§1)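 A single step with final 0.05% Triton X-100, 1% formaldehyde and 1 ug/ml Hoechst fixed the cells and stained nuclei 5 days after treatment. Lung cancer cell lines in 1536-well plates had been treated by pin tool the day after seeding with one drug alone or a fixed anchor-drug dose plus five library-drug doses (not always all listed) in √10 steps, and nuclei were counted on 4× images. Relative viability is the ratio of nuclei in treated wells to nuclei in vehicle wells, taken as the median of duplicate plates.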

[1] = compound: C1=CC=C2C(=C1)N=C(S2)C(C#N)C3=NC(=NC=C3)NCCC4=CN=CC=C4 + COc1cc2c(Oc3ccc(NC(=O)C4(C(=O)Nc5ccc(F)cc5)CC4)cc3F)ccnc2cc1OCCCN1CCOCC1 [Foretinib] (partner 0.25 µM)
Method in brief: as §1

[2] = compound: C1=CC=C2C(=C1)N=C(S2)C(C#N)C3=NC(=NC=C3)NCCC4=CN=CC=C4 + C[C@@H](Oc1cc(-c2cnn(C3CCNCC3)c2)cnc1N)c1c(Cl)ccc(F)c1Cl [Crizotinib] (partner 1 µM)
Method in brief: as §1

NVP-TAE684 + OSI-027 = compound: COc1cc(N2CCC(N3CCN(C)CC3)CC2)ccc1Nc1ncc(Cl)c(Nc2ccccc2S(=O)(=O)C(C)C)n1 [NVP-TAE684] + COc1cccc2cc(-c3nc([C@H]4CC[C@H](C(=O)O)CC4)n4ncnc(N)c34)[nH]c12 [OSI-027] (partner 0.5 µM)
Method in brief: as §1

| Cell Line | relative viability (CUDC-101 + Alpelisib; first compound 0.01 µM) | relative viability (CUDC-101 + Alpelisib; first compound 0.03162 µM) | relative viability (CUDC-101 + Alpelisib; first compound 0.1 µM) | relative viability (CUDC-101 + Alpelisib; first compound 0.3162 µM) | relative viability (CUDC-101 + Alpelisib; first compound 1 µM) | relative viability ([1]; first compound 0.005 µM) | relative viability ([1]; first compound 0.01581 µM) | relative viability ([1]; first compound 0.05 µM) | relative viability ([1]; first compound 0.1581 µM) | relative viability ([1]; first compound 0.5 µM) | relative viability ([2]; first compound 0.005 µM) | relative viability ([2]; first compound 0.01581 µM) | relative viability ([2]; first compound 0.05 µM) | relative viability ([2]; first compound 0.1581 µM) | relative viability ([2]; first compound 0.5 µM) | relative viability (NVP-TAE684 + OSI-027; first compound 0.2 µM) | relative viability (NVP-TAE684 + OSI-027; first compound 0.6325 µM) | relative viability (NVP-TAE684 + OSI-027; first compound 2 µM) |
| --- | --- | --- | --- | --- | --- | --- | --- | --- | --- | --- | --- | --- | --- | --- | --- | --- | --- | --- |
| NCI-H322M | 0.775 | 0.704 | 0.725 | 0.733 | 0.725 | 0.887 | 0.983 | 0.838 | 0.972 | 0.982 | 0.845 | 0.85 | 0.953 | 0.891 | 0.796 | 0.426 | 0.469 | 0.336 |
| SK-MES-1 | 0.798 | 0.877 | 0.879 | 0.874 | 0.592 | 0.836 | 1.07 | 0.863 | 1.11 | 0.993 | 1.11 | 1.12 | 0.99 | 1.14 | 0.902 | 0.447 | 0.529 | 0.352 |
| NCI-H1355 | 0.873 | 0.738 | 1.02 | 0.807 | 0.566 | 0.929 | 1.06 | 0.96 | 1.08 | 0.923 | 1.11 | 1.16 | 1.04 | 1.03 | 0.949 | 0.423 | 0.325 | 0.273 |
| NCI-H2126 | 0.771 | 0.706 | 0.7 | 0.74 | 0.531 | 1.14 | 1.2 | 1.22 | 1.19 | 1.34 | 0.825 | 0.989 | 1.02 | 1.04 | 0.881 | 0.603 | 0.631 | 0.493 |
| NCI-H520 | 1.09 |  | 0.791 | 0.706 | 0.373 | 0.718 | 0.983 | 0.853 | 0.878 | 0.842 | 0.564 | 0.856 | 0.947 | 0.882 | 0.569 | 0.281 | 0.287 | 0.199 |
| NCI-H1755 | 0.96 | 0.944 | 0.956 | 0.972 | 0.844 | 0.915 | 0.991 | 0.945 | 0.936 | 0.939 | 0.809 | 0.964 | 0.844 | 1.02 | 0.831 | 0.636 | 0.672 | 0.453 |
| NCI-H358 | 1.21 | 0.871 | 0.926 | 0.71 | 0.415 | 0.635 | 0.677 | 0.776 | 0.772 | 0.642 | 0.678 | 0.539 | 0.533 | 0.621 | 0.609 | 0.718 | 0.616 | 0.15 |
| NCI-H2228 | 0.795 | 0.802 | 0.625 | 0.563 | 0.491 | 0.971 | 0.84 | 0.993 | 1.04 | 0.76 | 0.464 | 0.444 | 0.483 | 0.454 | 0.386 | 0.247 | 0.137 | 0.16 |
